Results taken from the supplement of paper PMC10307832.

Tests used:
Test in all cases: relative viability (nuclei count vs DMSO), 5 days (fraction); higher = more cells survive
Neratinib + Navitoclax = compound: CCOc1cc2ncc(C#N)c(Nc3ccc(OCc4ccccn4)c(Cl)c3)c2cc1NC(=O)/C=C/CN(C)C [Neratinib] + CC1(C)CCC(c2ccc(Cl)cc2)=C(CN2CCN(c3ccc(C(=O)NS(=O)(=O)c4ccc(N[C@H](CCN5CCOCC5)CSc5ccccc5)c(S(=O)(=O)C(F)(F)F)c4)cc3)CC2)C1 [Navitoclax] (partner 0.5 µM)
Outline: (§1)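 Lung cancer cell lines in 1536-well plates were dosed by pin tool the day after seeding, either with one drug alone or with a fixed anchor-drug dose plus five library-drug doses (not always all listed) in √10 steps. After 5 days, cells were fixed and their nuclei stained in one step (final 0.05% Triton X-100, 1% formaldehyde, 1 ug/ml Hoechst), then counted on 4× images. Relative viability is the nuclei count in treated wells divided by that in vehicle wells. Values are medians of duplicate plates.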

Neratinib + Crizotinib = compound: CCOc1cc2ncc(C#N)c(Nc3ccc(OCc4ccccn4)c(Cl)c3)c2cc1NC(=O)/C=C/CN(C)C [Neratinib] + C[C@@H](Oc1cc(-c2cnn(C3CCNCC3)c2)cnc1N)c1c(Cl)ccc(F)c1Cl [Crizotinib] (partner 1 µM)
Outline: as §1

Neratinib + Dasatinib = compound: CCOc1cc2ncc(C#N)c(Nc3ccc(OCc4ccccn4)c(Cl)c3)c2cc1NC(=O)/C=C/CN(C)C [Neratinib] + Cc1nc(Nc2ncc(C(=O)Nc3c(C)cccc3Cl)s2)cc(N2CCN(CCO)CC2)n1 [Dasatinib] (partner 0.075 µM)
Outline: as §1

Neratinib + Vorinostat = compound: CCOc1cc2ncc(C#N)c(Nc3ccc(OCc4ccccn4)c(Cl)c3)c2cc1NC(=O)/C=C/CN(C)C [Neratinib] + O=C(CCCCCCC(=O)Nc1ccccc1)NO [Vorinostat] (partner 1 µM)
Outline: as §1

Cell Line | relative viability (Neratinib + Navitoclax; first compound 0.01 µM) | relative viability (Neratinib + Navitoclax; first compound 0.03162 µM) | relative viability (Neratinib + Navitoclax; first compound 0.1 µM) | relative viability (Neratinib + Navitoclax; first compound 0.3162 µM) | relative viability (Neratinib + Navitoclax; first compound 1 µM) | relative viability (Neratinib + Crizotinib; first compound 0.01 µM) | relative viability (Neratinib + Crizotinib; first compound 0.03162 µM) | relative viability (Neratinib + Crizotinib; first compound 0.1 µM) | relative viability (Neratinib + Crizotinib; first compound 0.3162 µM) | relative viability (Neratinib + Crizotinib; first compound 1 µM) | relative viability (Neratinib + Dasatinib; first compound 0.01 µM) | relative viability (Neratinib + Dasatinib; first compound 0.03162 µM) | relative viability (Neratinib + Dasatinib; first compound 0.1 µM) | relative viability (Neratinib + Dasatinib; first compound 0.3162 µM) | relative viability (Neratinib + Dasatinib; first compound 1 µM) | relative viability (Neratinib + Vorinostat; first compound 0.01 µM) | relative viability (Neratinib + Vorinostat; first compound 0.03162 µM) | relative viability (Neratinib + Vorinostat; first compound 0.1 µM) | relative viability (Neratinib + Vorinostat; first compound 0.3162 µM) | relative viability (Neratinib + Vorinostat; first compound 1 µM)
NCI-H23 | 0.745 | 1.12 | 0.694 | 0.838 | 0.528 | 0.697 | 0.572 | 0.413 | 0.486 | 0.27 | 0.695 | 0.876 | 0.779 | 0.825 | 0.537 | 0.699 | 0.7 | 0.641 | 0.493 | 0.491
PC-3 [JPC-3] | 0.731 | 0.826 | 0.784 | 0.624 | 0.333 | 1.09 | 1.09 | 0.997 | 0.948 | 0.345 | 1.11 | 1.1 | 0.885 | 0.757 | 0.286 | 1.14 | 0.82 | 0.783 | 0.424 | 0.665
NCI-H838 | 1.21 | 1.22 | 0.972 | 0.995 | 0.588 | 0.995 | 0.812 | 0.833 | 0.67 | 0.476 | 0.272 | 0.255 | 0.278 | 0.287 | 0.267 |  | 0.794 | 0.705 | 0.735 | 0.619
NCI-H650 |  |  |  |  |  | 0.866 | 0.699 | 0.78 |  | 0.421 | 0.489 | 0.493 | 0.477 | 0.416 | 0.463 | 0.406 | 0.399 | 0.451 | 0.403 | 0.367
EBC-1 | 0.439 | 0.408 | 0.41 | 0.339 | 0.219 | 0.167 | 0.204 | 0.175 |  | 0.203 |  |  |  |  |  |  |  |  |  | 
PC-14 | 0.988 | 1.01 | 0.928 | 0.936 | 0.24 |  | 0.851 | 0.796 | 0.662 | 0.356 | 0.22 | 0.265 | 0.195 | 0.0282 | 0.0541 | 0.773 | 0.754 | 0.557 | 0.359 | 0.0625
NCI-H1299 | 1.04 | 1.06 | 0.986 | 1.07 | 1.11 | 0.991 | 1.02 | 0.95 | 0.991 | 1.06 |  |  |  |  |  |  |  |  |  | 
LK-2 | 0.944 | 0.97 | 0.859 | 0.639 | 0.342 | 0.209 | 0.191 | 0.206 | 0.211 | 0.253 | 0.28 | 0.275 | 0.354 | 0.258 | 0.218 | 0.29 | 0.37 | 0.292 | 0.219 | 0.271
NCI-H2009 | 1.13 | 1.23 | 1.12 | 1.13 | 0.999 | 1.02 | 1.05 | 0.524 | 0.946 | 0.783 | 0.3 | 0.347 | 0.301 | 0.292 | 0.206 | 0.739 | 0.772 | 0.777 | 0.754 | 0.644
